Read-outs that look alike come from different tables or passages of the source.
Tested on: cultured human mast cells (CHMC), IgE-induced degranulation
Assay: CHMC low cell density IgE activation: tryptase assay
Format: cell-based
Description: Inhibition of degranulation was measured at both low and high cell density by quantifying the release of the granule specific factors tryptase, histamine and hexosaminidase. Inhibition of release and/or synthesis of lipid mediators was assessed by measuring the release of leukotriene LTC4 and inhibition of release and/or synthesis of cytokines was monitored by quantifying TNF-α, IL-6 and IL-13. Tryptase and hexosaminidase were quantified using fluorogenic substrates as described in their respective examples. […] The protocols of the various assays are provided below.
A second phase is performed to convert the expanded CD34-negative progenitor cells into differentiated mucosal mast cells. These mucosal cultured human mast cells (“CHMC”) are derived from CD34+ cells isolated from umbilical cord blood and treated to form a proliferated population of CD34-negative progenitor cells, as described above. […] Also, the cytokine composition of the medium was modified such that it contained SCF (200 ng/mL) and recombinant human IL-6 (200 ng/mL; Peprotech, Catalog No. 200-06 reconstituted to 100 ug/mL in sterile 10 mM acetic acid) (“CM/SCF/IL-6 medium”).
Pellet CHMC cells (980 rpm, 10 min) and resuspend in pre-warmed MT. Add 65 ul of cells to each 96-well plate. Depending on the degranulation activity for each particular CHMC donor, load 1000-1500 cells/well. Mix four times followed by a 1 hr incubation at 37° C. […] Stimulate cells by adding 25 ul of 6× anti-IgE solution to the appropriate plates. Add 25 ul MT to un-stimulated control wells. Mix twice following addition of the anti-IgE. Incubate at 37° C. for 30 minutes. […] Spin plates at 1000 rpm for 10 min to pellet cells. Transfer 25 ul of supernatant to a 96-well black bottom plate and add 100 ul of freshly diluted tryptase substrate solution to each well. Incubate plates at room temperature for 30 min.
In Table 1, all reported values are IC50s (in μM). […] In Table 1, all reported values are IC50s (in μM).

[1] = CHMC low cell density, 3pt, read-out: LD Tryptase, CHMC, IgE, 3pt
[2] = CHMC low cell density, 8pt, read-out: LD Tryptase, CHMC, IgE, 8pt
[3] = low cell density CHMC, 3pt, read-out: LD Tryptase, CHMC, IgE, 3pt

Compound	IC50 [1] [µM]	IC50 [2] [µM]	IC50 [3] [µM]	also measured
CC1(C)Oc2ccc(Nc3nc(Nc4ccc5c(cnn5CCCO)c4)ncc3F)nc2NC1=O [Compound 838, N4-(2,2-Dimethyl-3-oxo-4H-5-pyrid[1,4]oxazin-6-yl)-5-fluoro-N2-[1-(3-hydroxypropyl)indazol-5-yl]-2,4-pyrimidinediamine]	< 10	< 10	–	–
N4-(2,2-Dimethyl-3-oxo-4H-5-pyrid[1,4]oxazin-6-yl)-5-fluoro-[1-(2-hydroxymethyl)-2-trifluoromethylbenzimidazol-5-yl]-2,4-pyrimidinediamine [Compound 924]	–	< 10	–	–
N4-(2,2-Dimethyl-3-oxo-4H-5-pyrid[1,4]oxazin-6-yl)-5-fluoro-N2-(4-methoxycarbonylphenyl)-2,4-pyrimidinediamine [Compound 1313]	–	–	< 10	–
CNC(=O)Cn1ccc2cc(Nc3ncc(F)c(Nc4ccc5c(n4)NC(=O)C(C)(C)O5)n3)ccc21 [Compound 683, N4-(2,2-Dimethyl-3-oxo-4H-5-pyrid[1,4]oxazin-6-yl)-5-fluoro-N2-[1-(N-methylamino)carbonylmethyleneindol-5-yl]-2,4-pyrimidinediamine]	< 10	< 10	–	–
COc1cc(Nc2ncc(F)c(Nc3ccc4c(n3)NC(=O)C(C)(C)O4)n2)cc(OC)c1OC.O=S(=O)(O)c1ccc(O)cc1 [Compound 676, N4-(2,2-Dimethyl-3-oxo-4H-5-pyrid[1,4]oxazin-6-yl)-5-fluoro-N2-(3,4,5-trimethoxyphenyl)-2,4-pyrimidinediamine 4-Hydroxybenzenesulfonic Acid Salt]	< 10	< 10	–	–
N4-(2,2-Dimethyl-3-oxo-4H-5-pyrid[1,4]oxazin-6-yl)-5-fluoro-N2-(3-methoxycarbonylppyrid-2yl)-2,4-pyrimidinediamine [Compound 1314]	–	–	< 10	–
COc1cc(Nc2ncc(F)c(Nc3ccc4c(n3)NC(=O)C(C)(C)O4)n2)cc(OC)c1OCCN1CCOCC1 [Compound 692, N2-[3,5-Dimethoxy-4-(2-(N-morpholino)ethyloxo)phenyl]-N4-(2,2-dimethyl-3-oxo-4H-5-pyrid[1,4]oxazin-6-yl)-5-fluoro-2,4-pyrimidinediamine]	< 10	< 10	–	–
O=C1COc2cc(Nc3nc(Nc4ccc(-c5ncco5)cc4)ncc3F)ccc2N1 [Compound 241]	–	–	–	IC50 (Homo sapiens, Mast cell, low cell density CHMC, 8pt, read-out: LD Tryptase, CHMC, IgE, 8pt): < 10 µM

Further lines, with some results ahead:

IC50 [1] [µM]	IC50 [2] [µM]	IC50 [3] [µM]	Compound	also measured
< 10	< 10	–	Cn1c(CS(C)(=O)=O)nc2cc(Nc3ncc(F)c(Nc4ccc5c(n4)NC(=O)C(C)(C)O5)n3)ccc21 [Compound 969, N4-(2,2-Dimethyl-3-oxo-4H-5-pyrido[1,4]oxazin-6-yl)-5-fluoro-N2-{1-methyl-2-[(methylsulfonyl)methyl]benzimidazol-5-yl}-2,4-pyrimidinediamine]	–
< 10	< 10	–	CC1(C)Oc2ccc(Nc3nc(Nc4ccc5c(c4)nc(C(F)(F)F)n5CCCO)ncc3F)nc2NC1=O [Compound 941, N4-(2,2-Dimethyl-3-oxo-4H-5-pyrido[1,4]oxazin-6-yl)-5-fluoro-N2-[1-(3-hydroxypropyl)-2-trifluoromethylbenzimidazol-5-yl]-2,4-pyrimidinediamine]	–
–	–	< 10	N4-[benzoxathiazin-3(4H)-one-6-yl]2-chloro-5-fluoro-4-pyrimidinea mine [Compound 319]	–
–	–	< 10	Cc1cc(Nc2ncc(F)c(Nc3ccc4c(n3)NCCO4)n2)ccc1N1CCN(C)CC1 [Compound 1203, N4-(3,4-Dihydro-2H,4H-5-pyrid[1,4]oxazin-6-yl)-5-fluoro-N2-[3-methyl-4-(4-methylpiperazino)phenyl]-2,4-pyrimidinediamine]	IC50 (low cell density CHMC, 8pt, read-out: LD Tryptase, CHMC, IgE, 8pt): < 10 µM
< 10	< 10	–	Cn1c(N2CCOCC2)nc2cc(Nc3ncc(F)c(Nc4ccc5c(n4)NC(=O)C(C)(C)O5)n3)ccc21 [Compound 946, N4-(2,2-Dimethyl-3-oxo-4H-5-pyrido[1,4]oxazin-6-yl)-5-fluoro-N2-[1-methyl-2-(4-morpholino)benzimidazol-5-yl]-2,4-pyrimidinediamine]	–
